Source: US20140148482A1, “METHOD FOR SCREENING ANTI-CANCER DRUGS AND METHOD OF CANCER TREATMENT” (National Taiwan University, priority 2012, published 2014)
Like-named read-outs stand apart in the source and are kept apart here.

Tests used:
[1] = tested on: GADD45γ mRNA in Huh-7 cells; experiment: GADD45γ mRNA induction in Huh-7 cells, quantitative RT-PCR; format: cell-based, human; conditions: for screening criterion: increased expression of GADD45 family: 300% or above of GADD45γ expression, 800% or above of GADD45β expression, or both, Table 1; for GADD45γ relative gene expression, Mean: Huh-7 cells, 10 μM, 24 hours, reference control group = 100%
Procedure: (§1) Huh-7 cells, were added with 10 μM of the candidate compound and co-cultured under the same conditions for 24 hours. Sorafenib (10 μM) is used as a positive control group, and Huh-7 cells without compound treatment is used as the reference control group. mRNA levels were assessed through quantitative RT-PCR.
(§2) RNA was extracted using a Trizol reagent (Invitrogen, San Diego, Calif.). cDNAs were synthesized from total RNA (1 μg) using a High Capacity cDNA Archive kit (Applied Biosystems, Foster City, Calif.) and quantified using the TaqMan-Universal or SYBR Green PCR Master Mix (Applied Biosystems, Foster City, Calif.) on an ABI PRISM 7900 Sequence Detection System (Applied Biosystems, Foster City, Calif.). The primers for the GADD45β, GADD45γ and c-jun genes were purchased from Applied Biosystems (ABI TaqMan assay ID: Hs00169587_ml, Hs00198672_ml and Hs00277190_s1). Primers for the hypoxanthine phosphoribosyltransferase (HPRT; sense 5′-[…]-3′ and antisense 5′-[…]-3′) gene were used as endogenous controls. Conditions for PCR were as follows: 50° C. for 2 minutes, 95° C. for 10 minutes, and then 40 cycles of 95° C. for 15 seconds (denaturation) and 60° C. for 1 minute (annealing/extension). The relative mRNA amount of the target/control genes was calculated using the ΔCt (threshold cycle) method: relative expression=2−ΔCt, where ΔCt=Ct (target gene)−Ct (control gene). The gene expression of the reference control group is as 100%.
(§3) SC-20 was then tested for GADD45β, GADD45γ and c-Jun mRNA in sorafenib-sensitive (Huh-7) and sorafenib-resistant (Huh-7R) cell lines. The cell culture and the steps of SC-20 treatment were as described above. The concentration of SC-20 and was 10 μm. Said mRNA was measured via qRT-PCR.
as §2, with “Hs00277190_sl).” for “Hs00277190_s1).”, “gene).” for “gene). The gene expression of the reference control group is as 100%.”

[2] = tested on: GADD45β mRNA in Huh-7 cells; experiment: GADD45β mRNA induction in Huh-7 cells, quantitative RT-PCR; format: cell-based, human; conditions: 24 hours; for GADD45β relative gene expression, Mean: Huh-7 cells, 10 μM, reference control group = 100%; for GADD45β mRNA expression induction: Huh-7, 10 uM, FIG. 4B
Procedure: as §1, §2
The effects of GADD45β mRNA induction by different concentrations of the candidate compounds were tested.

[3] = tested on: c-jun mRNA in Huh-7 cells; experiment: c-jun mRNA induction in Huh-7 cells, quantitative RT-PCR; format: cell-based, human; conditions: 10 μM, 24 hours, reference control group = 100%
Procedure: as §1, §2

[4] = tested on: HCC cells (Huh-7, Hep3B, Huh-7R); experiment: MTT cell viability of HCC cells (FIG. 2A); format: cell-based, human; conditions: 72 hours, especially in sorafenib-resistant cell lines (Hep3B and Huh-7R)
Procedure: (§7) Cell viability was assessed using an MTT (3-(4,5-dimethylthiazol-2-yl)-2,5-diphenyltetrazolium bromide) assay
(§8) The HCC cell line, Hep3B, was obtained from the American Type Culture Collection (ATCC), and the Huh-7 cell line was from the Health Science Research Resources Bank. Cells were cultured in DMEM, containing 10% fetal bovine serum, penicillin (100 units/mL), streptomycin (100 μg/mL), L-glutamine (2 mmol/L), and sodium pyruvate (1 mmol/L) at 37° C. in a humidified incubator containing 5% CO2. A sorafenib-resistant cell line, Huh-7R, was generated through continuous treatment of Huh-7 cells with sorafenib up to 10 μmol/L.Human umbilical vein endothelial cells (HUVEC) were procured from ScienCell Research Laboratories, CA. HUVECs were maintained in endothelial cell culture medium (ScienCell) to selectively promote growth at 37° C. in a 5% CO2 incubator.
(§9) Then the cells were collected and measured via an MTT assay.

[5] = tested on: HUVEC (human umbilical venous endothelial cells); experiment: MTT cell viability, HUVEC; format: cell-based; conditions: 72 hours, especially in 5 uM treatments, FIG. 2B
Procedure: as §7, §8, §9

p-ERK in Hep3B cells = experiment: phospho-ERK protein level by Western blotting, Hep3B; format: cell-based, human; conditions: 24 hours, FIG. 4A
Procedure: (§4) Total-ERK, and phospho-ERK protein levels in HCC cells after sorafenib, SC-3 or SC-20 treatment at 24 hours. Whole-cell lysates after drug treatment were examined using Western blotting. Whole cell lysates of HCC cells after drug treatment were prepared and quantified as previously described (Ou D L et al. Cancer Res. 2010; 70:9309-18). SDS-PAGE and Western blot analysis were performed to measure protein expression. Signals were visualized using a UVP Imaging System (UVP, Upland, Calif.), or with X-ray film.

[6] = tested on: GADD45γ mRNA in Huh-7R cells; experiment: GADD45γ mRNA induction in sorafenib-resistant Huh-7R cells, qRT-PCR; format: cell-based, human; conditions: 10 μm, cut-off more than 300%, FIG. 3B
Procedure: as §3
as §2, with “Hs00277190_sl).” for “Hs00277190_s1).”, “gene).” for “gene). The gene expression of the reference control group is as 100%.”

Huh-7 xenograft = experiment: Subcutaneous xenograft model of HCC, Huh-7; format: in vivo, mice; conditions: SC-20 20 mg/kg/d vs sorafenib 50 mg/kg/d
Procedure: (§5) The protocol for the in vivo studies was approved by the Institutional Animal Care and Use Committee of College of Medicine, National Taiwan University. All the animal studies were performed according to the criteria outlined in the Guide for the Care and Use of Laboratory Animals prepared by National Academy of Sciences and published by NIH. Male BALB/c athymic (nu+/nu+) mice were inoculated subcutaneously with Huh-7 cells or Huh-7R cells (˜1×10^6). When the tumor volume reached ˜100 mm3 [volume (mm3)=(width)2×length×0.5], the mice were randomized into six treatment groups (n≧6 in each group): (a) vehicle control, (b) SC-20: 5 mg/kg/d, (c) SC-20: 10 mg/kg/d, (d) SC-20: 20 mg/kg/d, (e) SC-20: 50 mg/kg/d and (f) sorafenib: 50 mg/kg/d. Drug treatment was given daily via gavage. Tumor volume and body weight were recorded every 7 days. Tumor images from mice are from sacrifices at 25 days of treatment.
(§6) An additional mice were used to establish xenografts to observe survival time. For these experiments, mice with subcutaneously tumors (100 mm^3) were treated as described above. Survival was monitored until the experiments were terminated due to heavy tumor burden over 2000 mm^3 (FIG. 6C). Tx start, treatment start time; Tx stop, treatment stop time.

Huh-7R xenograft = experiment: Subcutaneous xenograft model of HCC, Huh-7R; format: in vivo, mice; conditions: SC-20 20 mg/kg/d vs sorafenib 50 mg/kg/d
Procedure: as §5, §6

Hep3B cells [7] = experiment: MTT cell viability, Hep3B; conditions: for cell viability of Hep3B (percentage of surviving cells): 72 hours of drug treatment, FIG. 2A
Procedure: as §7
(§10) Cells were cultured in DMEM, containing 10% fetal bovine serum, penicillin (100 units/mL), streptomycin (100 μg/mL), L-glutamine (2 mmol/L), and sodium pyruvate (1 mmol/L) at 37° C. in a humidified incubator containing 5% CO2.
as §9

Huh-7 cells [8] = experiment: MTT cell viability, Huh-7; format: cell-based, human; conditions: sorafenib-sensitive Huh-7, 72 hours, FIG. 5A
Procedure: as §7
The HCC cell line, Hep3B, was obtained from the American Type Culture Collection (ATCC), and the Huh-7 cell line was from the Health Science Research Resources Bank. Cells were cultured in DMEM, containing 10% fetal bovine serum, penicillin (100 units/mL), streptomycin (100 μg/mL), L-glutamine (2 mmol/L), and sodium pyruvate (1 mmol/L) at 37° C. in a humidified incubator containing 5% CO2.
Huh-7 and Hep3B cells were treated with sorafenib, SC-3 or SC-20 for 72 hours, and the cell viability was assessed using an MTT assay.

p-ERK in Huh-7 cells = experiment: phospho-ERK protein level by Western blotting, Huh-7; format: cell-based, human; conditions: Huh-7, 24 hours, FIG. 4A
Procedure: as §4

Huh-7 cells [9] = experiment: Apoptosis induction (Sub-G1) by flow cytometry; format: cell-based, human; conditions: Huh-7, FIGS. 5B and 5C
BNL-MEA allograft = experiment: Orthotopic allograft model of HCC, BNL-MEA; format: in vivo, mice
Procedure: The protocol for the in vivo studies was approved by the Institutional Animal Care and Use Committee of College of Medicine, National Taiwan University. All the animal studies were performed according to the criteria outlined in the Guide for the Care and Use of Laboratory Animals prepared by National Academy of Sciences and published by NIH. BALB/c mice were anaesthetized with isoflurane, and a small transverse incision was made in the left abdomen. BNL-MEA cells (˜1.5×10^5) suspended in 20 μl PBS were slowly injected with a 30-gauge needle into the left liver lobe, which was exposed through the incision. After injection, the incision was closed by suture with absorbable material. Five days after the surgery, the mice were randomized to three treatment groups (n≧4 in each group): (a) vehicle control, (b) SC-20 20 mg/kg/d and (c) sorafenib 10 mg/kg/d. Drug treatment was given daily via gavage. Mice sacrificed after twenty-five treatments were used as end-points of the therapeutic effect. In FIG. 7C, the arrows indicated the tumors.

Hep3B cells [10] = conditions: human, 72 h
Procedure: as §7, §10, §9

| Structure (SMILES) | screening criterion: increased expression of GADD45 family [1] | GADD45γ relative gene expression, Mean [1] [%] | GADD45β relative gene expression, Mean [2] [%] | c-Jun relative gene expression, Mean [3] [%] | growth inhibition of HCC cells compared with sorafenib [4] | GADD45β mRNA expression induction [2] | cell viability of Hep3B (percentage of surviving cells) (Hep3B cells [7]) [%] | further results |
| --- | --- | --- | --- | --- | --- | --- | --- | --- |
| N#Cc1ccc(Oc2ccc(NC(=O)Nc3ccc(Cl)c(C(F)(F)F)c3)cc2)cc1 [SC-1] | satisfied the increased expression of GADD45 family | 402.46 | 1156.44 | 343.08 | – | – | – | – |
| Cc1cc(Oc2ccnc3c([N+](=O)[O-])cccc23)ccc1NC(=O)c1cc(C(F)(F)F)cc(C(F)(F)F)c1 [SC-20] | satisfied the increased expression of GADD45 family | 364.16 | 1674.94 | 515.47 | even more potent than sorafenib | significantly induced | 36.78 | growth inhibition of HUVECs compared with sorafenib [5]: even more potent than sorafenib; reduction of p-ERK (p-ERK in Hep3B cells): incapable of reducing p-ERK; GADD45γ mRNA induction ([1]; sorafenib-sensitive Huh-7, 10 μm, cut-off more than 300%, FIG. 3A): can be induced; GADD45γ mRNA induction [6]: can be induced; mice survival time (Huh-7 xenograft; FIG. 6C): significantly prolong mice survival times more than highly dose of sorafenib; tumor growth inhibition (Huh-7 xenograft; daily gavage, FIG. 6A): significantly inhibited tumor growth more than highly dose of sorafenib; mice survival time (Huh-7R xenograft; FIG. 6C): significantly prolong mice survival times more than highly dose of sorafenib; tumor growth inhibition (Huh-7R xenograft; daily gavage, FIG. 6B): significantly inhibited tumor growth more than highly dose of sorafenib; cell growth inhibition compared with sorafenib (Hep3B cells [7]; sorafenib-resistant Hep3B, 72 hours, FIG. 5A): more potency than sorafenib; cell growth inhibition compared with sorafenib (Huh-7 cells [8]): more potency than sorafenib; reduction of p-ERK (p-ERK in Huh-7 cells): incapable of reducing p-ERK; apoptosis induction (Sub-G1) compared with sorafenib (Huh-7 cells [9]): more potency than sorafenib in inducing apoptosis; tumor growth in terms of tumor volume and weight (BNL-MEA allograft; BNL-MEA allograft, SC-20 20 mg/kg/d, daily gavage, twenty-five treatments, FIGS. 7A and 7B): significantly inhibited tumor growth; tumor growth inhibition compared with sorafenib (BNL-MEA allograft; orthotopic model, SC-20 20 mg/kg/d vs sorafenib 10 mg/kg/d, FIG. 7C): inhibited tumor growth significantly more than sorafenib |
| Cc1cc(Oc2ccnc3c(N)cccc23)ccc1NC(=O)c1cc(C(F)(F)F)cc(C(F)(F)F)c1 [SC-21] | – | 96.65 | 94.65 | 77.51 | – | – | – | – |
| CC(=O)Nc1cccc2c(Oc3ccc(NC(=O)c4cc(C(F)(F)F)cc(C(F)(F)F)c4)c(C)c3)ccnc12 [SC-22] | – | 229.94 | 340.21 | 183.54 | – | – | – | – |
| N#Cc1ccc(Oc2ccc3cccc(NC(=O)Nc4ccc(Cl)c(C(F)(F)F)c4)c3c2)cc1 [SC-72] | satisfied the increased expression of GADD45 family | 1522.00 | 1951.02 | 552.00 | even more potent than sorafenib | – | – | cell viability of Hep3B (percentage of surviving cells) (Hep3B cells [10]): 15.65% |
| CNC(=O)c1cc(Oc2ccc(NC(=O)Nc3ccc(Cl)c(C(F)(F)F)c3)cc2)ccn1 [sorafenib, Sorafenib, reference compound] | – | 1377.54 | 2226.40 | 447.28 | – | significantly induced | 68.57 | – |
